Experimental data: patent US8759334B2, “Compounds useful for the treatment of metabolic and inflammatory diseases” (Galapagos NV, priority 2011, dated 2014)

Tests used:
GPR43 [1] = biological target: T1, GPR43 (Homo sapiens, UniProt O15552); assay: Calcium mobilization assay without probenecid; type: cell-based; details: GPR43 stably expressing cells, triggered with sodium acetate at EC80, read-out: GPR43 assay without probenicid IC50
T1 construct: expressed in transfected cells
T1 sequence (O15552 1-330): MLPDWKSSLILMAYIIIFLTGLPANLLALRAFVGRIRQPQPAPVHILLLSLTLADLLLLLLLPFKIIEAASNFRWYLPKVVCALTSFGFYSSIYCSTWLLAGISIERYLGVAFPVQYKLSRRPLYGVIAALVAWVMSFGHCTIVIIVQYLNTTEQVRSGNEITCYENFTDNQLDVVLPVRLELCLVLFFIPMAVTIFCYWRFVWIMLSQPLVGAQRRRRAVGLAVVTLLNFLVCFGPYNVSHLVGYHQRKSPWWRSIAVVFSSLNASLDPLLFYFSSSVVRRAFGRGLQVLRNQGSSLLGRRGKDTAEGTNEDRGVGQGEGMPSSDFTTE
How it was run: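 In GPR43-expressing cells loaded with a Calcium 4 dye, antagonism was tested by a 15 min compound preincubation at 37 °C, then a sodium acetate challenge at EC80, with Ca-flux read on injection. For agonism, Ca-flux was recorded directly on compound injection.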

GPR43 [2] = biological target: T1, GPR43; assay: [35S]GTPγS binding assay; type: biochemical; details: membranes from stable cell line over expressing GPR43; sodium acetate at EC80
Procedure: The assay was performed in a 96 well plate where the following reagents were added. […] In a last step, 30 μL of a mixture consisting of membranes-GTPγS-SpA beads was added (mixture consists of 10 μg/well membranes derived from stable cell line over expressing GPR43 (membranes were pre-incubated with 3 μM GDP for 15 minutes at 4° C.), 0.1 nM [35S]GTPγS (Perkin Elmer, NEG030) and 0.5 mg/well PVT-WGA SpA beads (perkin Elmer, RPNQ0001)). […] Reactions were incubated for 240 minutes at room temperature followed by centrifugation at 2000 rpm for 15 minutes. Plates were read on a Topcount immediately after centrifugation (readout time, 1 minute/well).

GPR43 [3] = biological target: T1, GPR43; assay: Calcium mobilization assay with probenecid; type: cell-based; details: GPR43 stably expressing cells; triggered with sodium acetate at EC80; 2.5 mM probenecid; read-out: GPR43 assay with probenicid IC50
How it was run: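 […] being added at rising concentrations to a GPR43 stable line. Before this, cells were dye-loaded (Calcium 4 with 2.5 mM probenecid) for 2 h at 37 °C after overnight plating.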

human neutrophils = assay: Neutrophil migration assay; type: cell-based; details: neutrophils from human buffy coat, migration towards sodium acetate, read-out: human neutrophil migration inhibition EC50
Procedure: G Protein-Coupled Receptor 43 (GPR43) was described as an essential player in the process of neutrophil recruitment during intestinal inflammation.
The effect of agonists or antagonists for GPR43 can therefore be assayed in a neutrophil migration test. In the neutrophil migration assay, neutrophils, isolated from buffy coats from human volunteers, are treated with a compound for 30 minutes. Subsequently, the neutrophils are transferred to the upper wells of a Corning HTS transwell 96 permeable support system, of which the lower wells are filled with a sodium acetate solution.
The ACD buffer consists of 140 mM citric acid, 200 mM sodium citrate and 220 mM dextrose. The 6% dextran/0.9% NaCl solution consists of 15 g dextran T2000 and 2.25 g NaCl dissolved in 250 mL H2O.
A human buffy coat is diluted with an equal volume of ice cold DPBS. 20 mL of the diluted buffy coat is gently mixed with 4 mL of ACD buffer. Then, 12 mL of the 6% dextran/0.9% NaCl solution is added to the mixture and the samples are inverted gently up to 20 times. The total volume is transferred to a new recipient and incubated at room temperature for 1 h for complete separation of the two phases to occur. The yellowish supernatant is then transferred to a clean centrifugation tube and centrifuged for 12 minutes at 1300 rpm and 4° C. After centrifugation, the supernatant is discarded and the remaining cell pellet is rapidly resuspended in 12 mL of ice-cold H2O for red blood cell lysis to occur. After 20 seconds, 4 mL of ice-cold 0.6 M KCl is added. Samples are mixed carefully and centrifuged for 6 minutes at 1300 rpm, 4° C. The supernatant is discarded and the red blood cell lysis procedure is repeated one more time. […] After centrifugation for 12 min at 1300 rpm, 4° C., the supernatant is removed and the cell pellet, containing the neutrophils, is resuspended in 25 mL chemotaxis buffer.
A cell suspension of 8.9×10^6 cells per milliliter is prepared. 20 μL of compound solution in chemotaxis buffer is added to 180 μl cell suspension. The mixture is incubated at 37° C. for 30 minutes with Intermediate resuspension of the cells after 15 minutes. […] The receiver well of the transwell system is then filled with 200 μL chemotaxis buffer containing compound and chemotactic agent (sodium acetate). After incubation at 37° C. in 5% CO2 for 1 h, the upper plate of the transwell system is removed and the cell suspension in the receiver plate is transferred to a 96-well V-bottom plate. 50 μL of DPBS is added to the receiver plate to prevent remaining cells from drying out. The V-bottom plate is centrifuged for 6 minutes at 1500 rpm. The supernatant is removed and the cells are resuspended in 50 μL DPBS. The cells are then transferred back to the receiver plate of the transwell system. […] The plate is incubated for 10 minutes in the dark, while shaking. 170 μL of cell lysate is then transferred to a white 96-well plate and luminescence is measured. The detected luminescent signal is considered as linearly related to the number of migrated cells.

Row | Structure (SMILES) | IC50 (GPR43 [1]) [nM] | IC50 (GPR43 [2]) [nM] | IC50 (GPR43 [3]) [nM] | EC50 (human neutrophils) [nM]
1 | CC1(C(=O)N(CCO)Cc2ccc(Cl)cc2)CCN1C(=O)Cc1csc2ccccc12 (stereo not shown) [Compound 67, 1-(2-Benzo[b]thiophen-3-yl-acetyl)-2-methyl-azetidine-2-carboxylic acid (4-chloro-benzyl)-(2-hydroxy-ethyl)-amide] | 0.01 to 100 | 101 to 500 | > 1000 | 
2 | Cc1cc(C)cc(CC(=O)N2CCC2(C)C(=O)N(CCCC(N)=O)Cc2ccc(Cl)cc2)c1 (stereo not shown) [Compound 90, 1-[2-(3,5-Dimethyl-phenyl)-acetyl]-2-methyl-azetidine-2-carboxylic acid (3-carbamoyl-propyl)-(4-chloro-benzyl)-amide] | 0.01 to 100 |  | 101 to 500 | 0.01 to 100
3 | Cc1cc(C)cc(CC(=O)N2CCC2(C)C(=O)N(CC(=O)O)Cc2ccc3cc[nH]c3c2)c1 (stereo not shown) [Compound 96, [{1-[2-(3,5-Dimethyl-phenyl)-acetyl]-2-methyl-azetidine-2-carbonyl}-(1H-indol-6-ylmethyl)-amino]-acetic acid] | 101 to 500 |  | 101 to 500 | 0.01 to 100
4 | CC1(C(=O)N(CCCC(=O)O)Cc2ccc(Cl)cc2)CCN1C(=O)c1csc2ccccc12 (stereo not shown) [Compound 115, 4-[[1-(Benzo[b]thiophene-3-carbonyl)-2-methyl-azetidine-2-carbonyl]-(4-chloro-benzyl)-amino]-butyric acid] |  | 101 to 500 | 0.01 to 100 | 0.01 to 100
5 | CC1(C(=O)N(CCCC(=O)O)Cc2ccc3cc[nH]c3c2)CCN1C(=O)Cc1csc2ccccc12 (stereo not shown) [Compound 128, 4-[[1-(2-Benzo[b]thiophen-3-yl-acetyl)-2-methyl-azetidine-2-carbonyl]-(1H-indol-6-ylmethyl)-amino]-butyric acid] |  | 101 to 500 | 0.01 to 100 | 0.01 to 100
6 | CC1(C(=O)N(CCCC(=O)O)Cc2ccc3cc[nH]c3c2)CCN1C(=O)c1csc2ccccc12 (stereo not shown) [Compound 134, 4-[[1-(Benzo[b]thiophene-3-carbonyl)-2-methyl-azetidine-2-carbonyl]-(1H-indol-6-ylmethyl)-amino]-butyric acid] |  | > 501 | 0.01 to 100 | 0.01 to 100
7 | CC1(C(=O)N(CCCC(=O)O)Cc2ccc(C(F)(F)F)cc2)CCN1C(=O)Cc1csc2ccccc12 (stereo not shown) [Compound 144, 4-[[1-(2-Benzo[b]thiophen-3-yl-acetyl)-2-methyl-azetidine-2-carbonyl]-(4-trifluoromethyl-benzyl)-amino]-butyric acid] |  | 51 to 100 | 0.01 to 100 | 0.01 to 100
8 | CC1(C(=O)N(CCC(=O)O)Cc2ccc(Cl)cc2)CCN1C(=O)c1csc2ccccc12 (stereo not shown) [Compound 155, 3-[[1-(Benzo[b]thiophene-3-carbonyl)-2-methyl-azetidine-2-carbonyl]-(4-chloro-benzyl)-amino]-propionic acid] |  | > 501 | 0.01 to 100 | 0.01 to 100
9 | CC1(C(=O)N(CCC(=O)O)Cc2cccc(Cl)c2)CCN1C(=O)c1csc2ccccc12 (stereo not shown) [Compound 169, 3-[[1-(Benzo[b]thiophene-3-carbonyl)-2-methyl-azetidine-2-carbonyl]-(3-chloro-benzyl)-amino]-propionic acid] |  | > 501 | 0.01 to 100 | 101 to 500
10 | CC1(C(=O)N(CCCS(N)(=O)=O)Cc2ccc(Cl)cc2)CCN1C(=O)c1csc2ccccc12 (stereo not shown) [Compound 182, 1-(Benzo[b]thiophene-3-carbonyl)-2-methyl-azetidine-2-carboxylic acid (4-chloro-benzyl)-(3-sulfamoyl-propyl)-amide] |  | 101 to 500 | 0.01 to 100 | 
11 | CC1(C(=O)N(CCCS(N)(=O)=O)Cc2cccc(Cl)c2)CCN1C(=O)c1csc2ccccc12 (stereo not shown) [Compound 187, 1-(Benzo[b]thiophene-3-carbonyl)-2-methyl-azetidine-2-carboxylic acid (3-chloro-benzyl)-(3-sulfamoyl-propyl)-amide] |  | 101 to 500 | 0.01 to 100 | 
12 | CC1(C(=O)N(CCCC(=O)O)c2ccc(Cl)cc2)CCN1C(=O)c1csc2ccccc12 (stereo not shown) [Compound 194, 4-[[1-(Benzo[b]thiophene-3-carbonyl)-2-methyl-azetidine-2-carbonyl]-(4-chloro-phenyl)-amino]-butyric acid] |  | > 501 | 0.01 to 100 | 
13 | CCC1(C(=O)N(CCCC(=O)O)Cc2cccc(Cl)c2)CCN1C(=O)c1csc2ccccc12 (stereo not shown) [Compound 195, 4-[[1-(Benzo[b]thiophene-3-carbonyl)-2-ethyl-azetidine-2-carbonyl]-(3-chloro-benzyl)-amino]-butyric acid] |  | 101 to 500 | 0.01 to 100 | 
14 | C[C@@H](c1ccc(Cl)cc1)N(CCCC(=O)O)C(=O)[C@@]1(C)CCN1C(=O)c1csc2ccccc12 [Compound 198, 4-{[(R)-1-(Benzo[b]thiophene-3-carbonyl)-2-methyl-azetidine-2-carbonyl]-[(S)-1-(4-chloro-phenyl)-ethyl]-amino}-butyric acid] |  | 101 to 500 | 0.01 to 100 | 
